# Measured values: paper PMC10689823, “Discovery of a Drug-like, Natural Product-Inspired DCAF11 Ligand Chemotype” (Nature Communications, 2023)
# Where “and” joins values, the source holds several entries; their conditions need not be identical. Equal entries are not always repeated. Where two headings read alike, the source gives them in different places.
# Tests used:
# PDE6D mRNA = experiment: RT-qPCR of PDE6D mRNA in Jurkat cells; assay type: cell-based; conditions: for PDE6D mRNA level (relative to DMSO control group): 6 h, Supplementary Fig. 1f
# Method: Jurkat cells were grown in 12-well plates and treated with compounds for the indicated time. RNA was extracted using the RNeasy Plus Mini Kit (QIAGEN, 74134), and DNA was removed by DNase digestion with RNase-free DNase Set (QIAGEN, 79256). cDNA was synthesized using the QuantiTect Reverse Transcription Kit (QIAGEN, 205313). The mRNA expression level was evaluated with the QuantiFast SYBR Green PCR Kit (Qiagen, 330502), using the CFX96 Real-Time PCR Detection System (BIO-RAD Laboratories), and relative expression levels were calculated using the ΔΔCt method using GAPDH as reference[45] and analyzed in GraphPad Prism 9.0. The sequences of the primers for PDE6D were 5’-[…]-3’ (forward) and 5’-[…]-3’ (reverse). For GAPDH, the sequences were 5’-[…]-3’ (forward) and 5’-[…]-3’ (reverse). For BRD2, the sequences were 5’-[…]-3’ (forward), 5’-[…]-3’ (reverse). For BRD3, the sequences were 5’-[…]-3’ (forward), 5’-[…]-3’ (reverse). For BRD4, the sequences were 5’-[…]-3’ (forward), 5’-[…]-3’ (reverse). These primers were synthesized by Sigma-Aldrich.
# LC3B = LC3B (Homo sapiens, UniProt Q9GZQ8); experiment: Thermal shift assay with LC3B; assay type: binding; conditions: 15 µM LC3B; 60 µM compound; Glo-Melt dye
# Method: For thermal shift analysis, 15 µM of human LC3B was dispensed into 384-well plates (Hard-Shell 384-well 480 PCR plates, BioRAD #HSR4805) in buffer (50 mM Tris/HCl pH 7.4, 100 mM NaCl, 1 mM GSH and 0.02% CHAPS) with a Certus Flex liquid dispenser (Gyger). 60 µM compounds in DMSO (n4 or DMSO (0.6%) as control were added with an Echo 520 acoustic liquid handler (Labcyte). Glo-Melt dye was added (final concentration: 1/100), plates sealed with Lightcycler 480 Sealing Foils (Roche, #04 729 757 001) and mixed by short centrifugation (1 min, 60 g and room temeprature). A Lightcycler 480 II (Roche) was used for thermal shift curves with a temperature gradient from 20 to 95 °C according to the manufacturer´s protocol. Protein melting curves were analyzed, and the difference in meting temperature (ΔTm) was calculated with LightCycler Thermal Shift Analysis software (ROCHE) and visualized by Graphpad Prism (Version 9.5.1).
# PDEδ [1] = target: T1, PDEδ (Homo sapiens, UniProt O43924); experiment: PDEδ levels by Western blot in Jurkat cells; assay type: cell-based; set-up: endogenous in cells; host or cells: Jurkat; conditions: for remaining activity at 10 µM: Jurkat, 6 h, DMSO pretreatment 2 h, then 10 μM, 6h, read-out: PDEδ/Vinculin intensity (relative to DMSO control group)
# PDEδ [2] = target: T1, PDEδ; experiment: PDEδ levels by Western blot in Dox-inducible DDB1 knockout KBM7 cells; assay type: cell-based; set-up: endogenous in cells; host or cells: Dox-inducible DDB1-knockout KBM7; conditions: 5 (10 μM) 8 h, Supplementary Fig. 4f
# Method: (§1) Cells were washed with PBS and lysed in lysis buffer (50 mM Tris-HCl, pH 7.4, 150 mM NaCl, 1% Triton X-100, 1% sodium deoxycholate, 0.1% SDS) with complete protease inhibitor cocktail (Roche, 11836170001) for 30 min on ice. For Ramos cells, cell pellets were lysed in lysis buffer (50 mM Tris-HCl, pH 8, 150 mM NaCl, 1% NP-40, 0.5% sodium deoxycholate) with complete protease inhibitor cocktail. After centrifugation at 16,000 x g, the supernatant was transferred into a new tube and the protein concentration was determined by DC protein assay (BIO-RAD, 5000116). Proteins were separated by SDS-PAGE and transferred to a PVDF membrane (Thermo scientific, 0.45 μm, 88518). For PDEδ, BRD2, GAPDH, BRD4, Vinculin and BTK, the membranes were blocked with Intercept® Blocking Buffer (LI-COR Biosciences, 927-70001) at room temperature for 1 h. The primary antibodies for these proteins were diluted with Intercept® Blocking Buffer (1:500 for PDEδ, 1:3000 for Vinculin, and 1:1000 for other proteins) and incubated with the membranes overnight at 4 °C. Membranes were washed with PBS + 0.1% Tween 20 (PBS-T) five times and incubated with secondary antibodies conjugated to IRDye® Infrared Fluorescent Dyes (1:5000, LI-COR Biosciences) at room temperature for 1 h with protection from light. […] Relative band intensities were quantified using Image Lab (BIO-RAD).
# PDEδ [3] = target: T1, PDEδ; experiment: PDEδ levels by Western blot in HEK293T, HAP1 and LC3B knockout HAP1 cells; assay type: cell-based; set-up: endogenous in cells; host or cells: HEK293T; HAP1 and LC3B-knockout HAP1
# Method: as §1
# T1 sequence (O43924 whole entry): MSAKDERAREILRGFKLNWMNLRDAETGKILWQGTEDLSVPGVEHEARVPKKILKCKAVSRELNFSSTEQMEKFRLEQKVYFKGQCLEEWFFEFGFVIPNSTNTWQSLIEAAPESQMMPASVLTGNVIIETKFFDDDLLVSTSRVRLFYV
structure (smiles),measurement,setting,value
Cc1ccc(-n2nc3c(=O)n(CCCC(=O)NCCc4ccc(C(=O)NCCOCCOCCOCCOc5c(Br)cc(/C=C6\C(=O)Nc7ccc(Br)cc76)cc5Br)cc4)nc(C)c3c2C)cc1 [Compound 5],PDE6D mRNA level (relative to DMSO control group),PDE6D mRNA; 3 μM,141.721 and 114.564 and 90.7441
same,PDE6D mRNA level (relative to DMSO control group),PDE6D mRNA; 10 μM,145.389 and 133.515 and 106.183
same,PDEδ mRNA levels (in words),PDE6D mRNA; 6 h treatment,no reduction in mRNA levels
same,change of melting temperature of LC3B (ΔTm),LC3B,did not change the thermal stability
same,PDEδ degradation,"PDEδ [1]; 10 µM, 18 h incubation",ca. 75%
same,remaining activity at 10 µM,PDEδ [1]; Fig. 1g,43.9%
same,remaining activity at 10 µM,PDEδ [1]; Fig. 1d,44.2%
same,hook effect in PDEδ degradation,PDEδ [1]; up to 10 µM concentration,no hook effect
same,PDEδ protein level (relative to DMSO control group),PDEδ [2]; Dox-inducible DDB1 knockout KBM7 cells pretreated with 0.5 ug/mL Dox for 3 days,abolished
same,PDEδ protein level (relative to DMSO control group),"PDEδ [2]; Dox-inducible DDB1 knockout KBM7 cells, no Dox (DMSO)",44.238 and 44.9587 and 52.5197 and 56.1328
same,PDEδ degradation in HEK293T and HAP1 cell lines,PDEδ [3]; 5 μM or 10 μM,degraded
same,PDEδ degradation in LC3B knockout HAP1 cells,PDEδ [3]; LC3B knockout HAP1 cells,induced PDEδ degradation
